Reference: patent US20130071897A1, “METHOD FOR CONTROLLING UNDESIRABLE BYPRODUCTS FORMATION CAUSED BY CONTAMINATING ORGANISMS IN THE PRODUCTION OF ETHANOL FROM SYNGAS” (COSKATA, INC., priority 2011, published 2013)

Experiments:
C. autoethanogenum [1] = test: Toxicity to C. autoethanogenum by batch fermentation using syngas substrate, optical density; type: cell-based, Clostridium autoethanogenum; settings: for O.D. Response of Various Inhibitors on C. autoethanogenum: Table 21, one value per compound; for O.D. Response to Various Inhibitors: duplicates A and B, amount not given
Method: In this example various crotonate-like compounds on are evaluated for toxicity to C. autoethanogenum by batch fermentation using syngas substrate. The batch fermentations are conducted by anoxically filling 100 mL serum bottles with 10 mL of media having the composition given in Tables 12 and 13. Duplicate runs are conducted for each concentration. The compounds are: • C-1 Ethyl 4,4,4-trifluoro-3-(trifluoromethyl)crotonate • C-4 4,4,4-Trifluorocrotonamide • C-9 Ethyl 4,4,4-Trifluoro-3-(amino)crotonate • C-18 3 trifluoromethyl-4-methoxybenzoate.
Each bottle is inoculated with 1.0 mL of seed culture inoculum from an active fermenter using syngas substrate and containing Clostridium autoethanogenum, which inoculum has an OD of about 4.92 (which upon a 10 times dilution provides a starting OD for the fermentation of about 0.49). The bottles are gased with syngas to about 100 kilopascals and maintained at a temperature of 37° C. The bottles are regassed with syngas every 8 to 12 hours. The syngas has the approximate composition set forth in Examples 6 to 10. Twenty four hours after inoculation of the bottles with the bacteria, the compounds are added to different bottles as a solution in 50 μL of N-methylpyrrolidone in the amounts indicated in Tables 20 and 21. The fermentation process is allowed to progress at 37° C. At selected intervals of time, bacterial growth is measured by reading the OD of the fermentation liquid using a Thermo Spectronic Genesys 20 spectrophotometer. Optical density is measured by anoxically removing an aliquot of fermentation liquid and adding it to a disposable cuvette. OD's ranging between 0.01 and 0.4 are measured using fermentation liquid directly, while OD's greater than 0.4 are measure after performing a 1/10 dilution with water.

C. autoethanogenum [2] = test: Balch tube batch growth of homoacetogen C. autoethanogenum on fructose, optical density; type: cell-based; settings: added 21 h after inoculation
Method: These compounds were first tested to determine their effect on a known homoacetogen. Each compound was tested in a series of batch experiments to determine the growth response of a homoacetogen to the presence of the compound at varying concentrations. The batch experiments were all conducted by anoxically filling a Balch tube with 5 ml of a fermentation medium having the composition given in Tables 2 and 3. To expedite results, these batch experiments used fructose as the growth nutrient source for bacteria. Thus, the media included a 5 g/L of fructose.
Each tube was inoculated with 0.5 ml of the same strain of C. autoethanogenum bacteria seed culture inoculum. The tubes were maintained at a temperature of 37° C. Twenty one hours after the inoculation of the tube with the bacteria, the different crotonate derivatives from Table 1 were added to different tubes in the amounts indicated in Table 4 This was at a time of early to mid-log phase growth for the bacteria. Each fermentation of the bacteria in the media at the different concentration of crotonate derivatives were allowed to progress and were monitored to determine the bacteria growth at selected intervals of time varying from approximately 20 hours to 190 hours. Growth at the intervals was measured by reading the optical density (OD) of the fermentation liquid. Optical density was measured using a Spectronic Spec 20 (Thermo Spectronic) at a wavelength of 600 nm. The OD of the Balch tube culture was measured directly in the tube using absorbance mode on the Spec 20 machine. The machine was set to zero absorbance by first measuring and adjusting the setting to zero absorbance using media only as a blank. This process was repeated at each indicated time point throughout the experiment. The ability of a tube fermentation at a particular concentration of crotonate derivative to reach a predetermined optical density was recorded in Table 4. Table 4 indicates the presence of bacterial growth to an OD of approximately 2 or above with a “+”, and to an optical density in a range of 0.5 to 1.5 as a “+/−”, and indicates the failure of bacterial growth to reach an optical density of approximately 0.5 as a “−”.

[3] = test system: Clostridium tyrobutyricum; test: Balch tube batch growth of strict butyrogen Clostridium tyrobutyricum on fructose, optical density; type: cell-based; settings: added 21 h after inoculation
Method: Similar experiments were conducted to make a preliminary determination as to which of the crotonate and crotonate-like compounds would act as butyrogen retardants. For this purpose the selected compounds were tested again in a series of batch experiments to determine the growth response of butyrogens to the presence of the compound at varying concentrations. The batch experiments were all conducted by anoxically filling a 20 ml Balch tube with 5 ml of a fermentation medium having the composition given in Tables 2 and 3. The media included 0.5 v/v final concentration of a fructose substrate. For each of the crotonate concentrations tested, duplicate test tubes were prepared.
Each tube was inoculated with 0.5 ml seed culture inoculum of the strict butyrogen Clostridium tyrobutyricum. The tubes were maintained at a temperature of 37° C. Twenty one hours after the inoculation of the tube with the bacteria, the different compounds from Table 1 were added to different tubes in the amounts indicated in Table 6. This was at a time of early to mid-log phase growth for the bacteria. Each fermentation of the bacteria in the media at the different concentration of crotonate derivatives were allowed to progress and were monitored to determine the bacteria growth at selected intervals of time varying from approximately 20 hours to 54 hours. Growth at the intervals was measured by reading the optical density (OD) of the fermentation liquid. Optical density was measured as described in Example 1. The ability of a tube fermentation at a particular concentration of crotonate derivative to reach a predetermined optical density was recorded in Table 6. Table 6 indicates the presence of bacterial growth to an OD of approximately 1.8 or above with a “+”, and to an optical density in a range of 0.7 to 1.5 as a “+/−”, and indicates the failure of bacterial growth to reach an optical density of approximately 0.7 as a “−”.

[4] = 0 Hours, added 24 h after inoculation
[5] = 2.5 Hours, added 24 h after inoculation
[6] = 6.5 Hours, added 24 h after inoculation
[7] = 24.5 Hours, added 24 h after inoculation

Compound: 3 trifluoromethyl-4-methoxybenzoate [Compound C-18]
- O.D. Response of Various Inhibitors on C. autoethanogenum (C. autoethanogenum [1]; [4]): 0.49
- O.D. Response of Various Inhibitors on C. autoethanogenum (C. autoethanogenum [1]; [5]): 0.44
- O.D. Response of Various Inhibitors on C. autoethanogenum (C. autoethanogenum [1]; [6]): 0.44
- O.D. Response of Various Inhibitors on C. autoethanogenum (C. autoethanogenum [1]; [7]): 1.16
- O.D. Response of Various Inhibitors on C. autoethanogenum (C. autoethanogenum [1]; 30.5 Hours): 1.30
- O.D. Response of Various Inhibitors on C. autoethanogenum (C. autoethanogenum [1]; 47.5 Hours): 1.74
- O.D. Response of Various Inhibitors on C. autoethanogenum (C. autoethanogenum [1]; 56 Hours): 1.88
- O.D. Response to Various Inhibitors (C. autoethanogenum [1]; [4]): 0.49
- O.D. Response to Various Inhibitors (C. autoethanogenum [1]; [5]): 0.47
- O.D. Response to Various Inhibitors (C. autoethanogenum [1]; 2.5 Hours, added 24 h after inoculation, listed as C-19): 0.41
- O.D. Response to Various Inhibitors (C. autoethanogenum [1]; [6]): 0.44
- O.D. Response to Various Inhibitors (C. autoethanogenum [1]; [7]): 1.15
- O.D. Response to Various Inhibitors (C. autoethanogenum [1]; 24.5 Hours, added 24 h after inoculation, listed as C-19): 1.18
- O.D. Response to Various Inhibitors (C. autoethanogenum [1]; 30.5 Hours, added 24 h after inoculation): 1.32
- O.D. Response to Various Inhibitors (C. autoethanogenum [1]; 30.5 Hours, added 24 h after inoculation, listed as C-19): 1.28
- O.D. Response to Various Inhibitors (C. autoethanogenum [1]; 47.5 Hours, added 24 h after inoculation): 1.73
- O.D. Response to Various Inhibitors (C. autoethanogenum [1]; 47.5 Hours, added 24 h after inoculation, listed as C-19): 1.75

Compound: O=C(O)/C=C/C(F)(F)F [G, 4,4,4-trifluorocrotonic acid]
- Optical density valuation of C. autoethanogenum (C. autoethanogenum [2]; 10 ppm(m)): + (bacterial growth to an OD of approximately 2 or above)
- Optical density valuation of C. autoethanogenum (C. autoethanogenum [2]; 100 ppm(m)): + (bacterial growth to an OD of approximately 2 or above)
- Optical density valuation of C. autoethanogenum (C. autoethanogenum [2]; 500 ppm(m)): + (bacterial growth to an OD of approximately 2 or above)
- Optical density valuation of C. autoethanogenum (C. autoethanogenum [2]; 1000 ppm(m)): +/− (to an optical density in a range of 0.5 to 1.5)
- Optical density valuation of C. autoethanogenum (C. autoethanogenum [2]; 5000 ppm(m)): − (failure of bacterial growth to reach an optical density of approximately 0.5)
- Optical density valuation of C. autoethanogenum (C. autoethanogenum [2]; 10000 ppm(m)): − (failure of bacterial growth to reach an optical density of approximately 0.5)
- Optical density valuation of C. tyrobutyricum ([3]; 100 ppm(m)): + (bacterial growth to an OD of approximately 1.8 or above)
- Optical density valuation of C. tyrobutyricum ([3]; 500 ppm(m)): + (bacterial growth to an OD of approximately 1.8 or above)
- Optical density valuation of C. tyrobutyricum ([3]; 1000 ppm(m)): + (bacterial growth to an OD of approximately 1.8 or above)

Compound: CCOC(=O)/C=C(/C)N [H, ethyl 3-aminocrotonate]
- Optical density valuation of C. autoethanogenum (C. autoethanogenum [2]; 10 ppm(m)): + (bacterial growth to an OD of approximately 2 or above)
- Optical density valuation of C. autoethanogenum (C. autoethanogenum [2]; 100 ppm(m)): + (bacterial growth to an OD of approximately 2 or above)
- Optical density valuation of C. autoethanogenum (C. autoethanogenum [2]; 500 ppm(m)): + (bacterial growth to an OD of approximately 2 or above)
- Optical density valuation of C. autoethanogenum (C. autoethanogenum [2]; 1000 ppm(m)): + (bacterial growth to an OD of approximately 2 or above)
- Optical density valuation of C. autoethanogenum (C. autoethanogenum [2]; 5000 ppm(m)): + (bacterial growth to an OD of approximately 2 or above)
- Optical density valuation of C. autoethanogenum (C. autoethanogenum [2]; 10000 ppm(m)): + (bacterial growth to an OD of approximately 2 or above)
